Where a name gives a salt, the structure may show the parent alone.
Legend:
[1] = Test on the solubility in a simulated body fluid; format: physicochemical
Protocol: Test on the Solubility in a Simulated Body Fluid
The concentration of the drug dissolved in the PBS buffered solution was determined with an HPLC-a method.

[2] = Test on the solubility in media at different pH; format: physicochemical
Protocol: Test on the Solubility in Media at Different pH
About 200 mg of solid powders of Preparation Example 10 and Preparation Example 15 were added in a 500 mL phosphate buffered solution at different pH values (50 mmol/L, pH 5.5, pH 6.5, pH 7.4, and pH 8.0) respectively, placed into a dissolution tester, kept at a constant temperature of 37° C., and paddle stirred at 50 rpm for 72 hours. Appropriate amounts of the suspension were taken out at 15 min, 30 min, 45 min, 1 h, 2 h, 4 h, 6 h, 8 h, 24 h, 32 h, 48 h, and 72 h respectively, and centrifuged immediately (15000 rpm, 5 min). The supernatant was diluted with methanol by a factor of two. The concentration of the drug dissolved in the PB buffer solution was determined with an HPLC-b method.

[3] = Systemic pharmacokinetic study of a bis(bupivacaine) pamoate suspension after a single subcutaneous injection at three points in a hind limb in SD rats; format: in vivo; settings: male, rat, sc, single subcutaneous injection at three points in left hind limb, 5 mg/kg, bupivacaine in blood
From the text: Systemic Pharmacokinetic Study of a bis(bupivacaine) pamoate Suspension After a Single Subcutaneously Injection at Three Points in a Hind Limb in SD Rats
The systemic absorption and exposure of bis(bupivacaine) pamoate in a rat body was further evaluated by performing a systemic pharmacokinetic research on SD rats which were subcutaneously injected with a bis(bupivacaine) pamoate suspension (Formulation Example 3) once at three points in a left hind limb and comparing with a commercial bupivacaine hydrochloride injection. The long-acting sustained release feature of bis(bupivacaine) pamoate was verified by comparing the pharmacokinetic parameters of bis(bupivacaine) pamoate with a commercial formulation.
In the example, 20 healthy SD male rats (Beijing Vital River Laboratory Animal Technology Co., Ltd., 190 to 210 g) were chosen and randomly divided into 2 groups, i.e., a group for Formulation Example 3 and a group for the commercial bupivacaine hydrochloride injection (Wuhu Kangqi Pharmaceutical Co., Ltd.) group, with 10 animals in each group.
About 0.5 mL of venous blood was collected at 30 min, 1 h, 2 h, 6 h, 8 h, 24 h, 48 h, 72 h and 96 h respectively after administration for both groups of laboratory animals for determining the blood drug concentration of bupivacaine.

[4] = 0.01 M PBS pH 7.4, 37° C., 5 min
[5] = 0.01 M PBS pH 7.4, 37° C., 15 min
[6] = 0.01 M PBS pH 7.4, 37° C., 30 min
[7] = 0.01 M PBS pH 7.4, 37° C., 24 h
[8] = phosphate buffer pH 5.5, 37° C., 0.25 h
[9] = phosphate buffer pH 5.5, 37° C., 0.5 h
[10] = phosphate buffer pH 5.5, 37° C., 0.75 h
[11] = phosphate buffer pH 5.5, 37° C., 1 h
[12] = phosphate buffer pH 5.5, 37° C., 2 h
[13] = phosphate buffer pH 5.5, 37° C., 4 h
[14] = phosphate buffer pH 5.5, 37° C., 6 h
[15] = phosphate buffer pH 5.5, 37° C., 8 h
[16] = phosphate buffer pH 5.5, 37° C., 24 h
[17] = phosphate buffer pH 5.5, 37° C., 32 h
[18] = phosphate buffer pH 5.5, 37° C., 48 h
[19] = phosphate buffer pH 5.5, 37° C., 72 h
[20] = phosphate buffer pH 6.5, 37° C., 0.25 h
[21] = phosphate buffer pH 6.5, 37° C., 0.5 h
[22] = phosphate buffer pH 6.5, 37° C., 0.75 h
[23] = phosphate buffer pH 6.5, 37° C., 1 h
[24] = phosphate buffer pH 6.5, 37° C., 2 h
[25] = phosphate buffer pH 6.5, 37° C., 4 h
[26] = phosphate buffer pH 6.5, 37° C., 6 h
[27] = phosphate buffer pH 6.5, 37° C., 8 h
[28] = phosphate buffer pH 6.5, 37° C., 24 h
[29] = phosphate buffer pH 6.5, 37° C., 32 h
[30] = phosphate buffer pH 6.5, 37° C., 48 h
[31] = phosphate buffer pH 6.5, 37° C., 72 h
[32] = phosphate buffer pH 7.4, 37° C., 0.25 h
[33] = phosphate buffer pH 7.4, 37° C., 0.5 h
[34] = phosphate buffer pH 7.4, 37° C., 0.75 h
[35] = phosphate buffer pH 7.4, 37° C., 1 h
[36] = phosphate buffer pH 7.4, 37° C., 2 h
[37] = phosphate buffer pH 7.4, 37° C., 4 h
[38] = phosphate buffer pH 7.4, 37° C., 6 h
[39] = phosphate buffer pH 7.4, 37° C., 8 h
[40] = phosphate buffer pH 7.4, 37° C., 24 h
[41] = phosphate buffer pH 7.4, 37° C., 32 h
[42] = phosphate buffer pH 7.4, 37° C., 48 h
[43] = phosphate buffer pH 7.4, 37° C., 72 h
[44] = phosphate buffer pH 8.0, 37° C., 0.25 h
[45] = phosphate buffer pH 8.0, 37° C., 0.5 h
[46] = phosphate buffer pH 8.0, 37° C., 0.75 h
[47] = phosphate buffer pH 8.0, 37° C., 1 h
[48] = phosphate buffer pH 8.0, 37° C., 2 h
[49] = phosphate buffer pH 8.0, 37° C., 4 h
[50] = phosphate buffer pH 8.0, 37° C., 6 h
[51] = phosphate buffer pH 8.0, 37° C., 8 h
[52] = phosphate buffer pH 8.0, 37° C., 24 h
[53] = phosphate buffer pH 8.0, 37° C., 32 h
[54] = phosphate buffer pH 8.0, 37° C., 48 h
[55] = phosphate buffer pH 8.0, 37° C., 72 h

SMILES: CCCCN1CCCCC1C(=O)Nc1c(C)cccc1C.CCCCN1CCCCC1C(=O)Nc1c(C)cccc1C.O=C(O)c1cc2ccccc2c(Cc2c(O)c(C(=O)O)cc3ccccc23)c1O [Preparation Example 15, bis(bupivacaine) pamoate]
- Compound concentration: Bupivacaine [1, 4]: 112.8 µM
- Compound concentration: Pamoic acid [1, 4]: 57.2 µM
- Compound concentration: Bupivacaine [1, 5]: 153.8 µM
- Compound concentration: Pamoic acid [1, 5]: 77.9 µM
- Compound concentration: Bupivacaine [1, 6]: 239.4 µM
- Compound concentration: Pamoic acid [1, 6]: 120.2 µM
- Compound concentration: Bupivacaine ([1]; 0.01 M PBS pH 7.4, 37° C., 1 h): 257.4 µM
- Compound concentration: Pamoic acid ([1]; 0.01 M PBS pH 7.4, 37° C., 1 h): 127.8 µM
- Compound concentration: Bupivacaine ([1]; 0.01 M PBS pH 7.4, 37° C., 2 h): 287.5 µM
- Compound concentration: Pamoic acid ([1]; 0.01 M PBS pH 7.4, 37° C., 2 h): 141.5 µM
- Compound concentration: Bupivacaine ([1]; 0.01 M PBS pH 7.4, 37° C., 6 h): 290.1 µM
- Compound concentration: Pamoic acid ([1]; 0.01 M PBS pH 7.4, 37° C., 6 h): 146.7 µM
- Compound concentration: Bupivacaine [1, 7]: 290.3 µM
- Compound concentration: Pamoic acid [1, 7]: 143 µM
- stability of the suspension (ratio between acid radical and basic group) ([1]; simulated body fluid): stable
- solubility ([1]; simulated body fluid, 0.01 M PBS pH 7.4, 37° C.): about 0.3 mM
- molar ratio of the solubility (bupivacaine to pamoic acid) ([2]; media at pH 5.5, pH 6.5, pH 7.4 and pH 8.0, remained for at least 72 hours): around 2.0
- Molar concentration of Bupivacaine [2, 8]: 0.050 mmol/L
- Molar concentration of Pamoic acid [2, 8]: 0.020 mmol/L
- Molar concentration of Bupivacaine [2, 9]: 0.070 mmol/L
- Molar concentration of Pamoic acid [2, 9]: 0.034 mmol/L
- Molar concentration of Bupivacaine [2, 10]: 0.140 mmol/L
- Molar concentration of Pamoic acid [2, 10]: 0.070 mmol/L
- Molar concentration of Bupivacaine [2, 11]: 0.196 mmol/L
- Molar concentration of Pamoic acid [2, 11]: 0.092 mmol/L
- Molar concentration of Bupivacaine [2, 12]: 0.198 mmol/L
- Molar concentration of Pamoic acid [2, 12]: 0.094 mmol/L
- Molar concentration of Bupivacaine [2, 13]: 0.198 mmol/L
- Molar concentration of Pamoic acid [2, 13]: 0.092 mmol/L
- Molar concentration of Bupivacaine [2, 14]: 0.198 mmol/L
- Molar concentration of Pamoic acid [2, 14]: 0.094 mmol/L
- Molar concentration of Bupivacaine [2, 15]: 0.198 mmol/L
- Molar concentration of Pamoic acid [2, 15]: 0.092 mmol/L
- Molar concentration of Bupivacaine [2, 16]: 0.192 mmol/L
- Molar concentration of Pamoic acid [2, 16]: 0.088 mmol/L
- Molar concentration of Bupivacaine [2, 17]: 0.196 mmol/L
- Molar concentration of Pamoic acid [2, 17]: 0.092 mmol/L
- Molar concentration of Bupivacaine [2, 18]: 0.198 mmol/L
- Molar concentration of Pamoic acid [2, 18]: 0.092 mmol/L
- Molar concentration of Bupivacaine [2, 19]: 0.190 mmol/L
- Molar concentration of Pamoic acid [2, 19]: 0.084 mmol/L
- Molar concentration of Bupivacaine [2, 20]: 0.046 mmol/L
- Molar concentration of Pamoic acid [2, 20]: 0.024 mmol/L
- Molar concentration of Bupivacaine [2, 21]: 0.076 mmol/L
- Molar concentration of Pamoic acid [2, 21]: 0.038 mmol/L
- Molar concentration of Bupivacaine [2, 22]: 0.138 mmol/L
- Molar concentration of Pamoic acid [2, 22]: 0.076 mmol/L
- Molar concentration of Bupivacaine [2, 23]: 0.202 mmol/L
- Molar concentration of Pamoic acid [2, 23]: 0.106 mmol/L
- Molar concentration of Bupivacaine [2, 24]: 0.204 mmol/L
- Molar concentration of Pamoic acid [2, 24]: 0.108 mmol/L
- Molar concentration of Bupivacaine [2, 25]: 0.202 mmol/L
- Molar concentration of Pamoic acid [2, 25]: 0.106 mmol/L
- Molar concentration of Bupivacaine [2, 26]: 0.198 mmol/L
- Molar concentration of Pamoic acid [2, 26]: 0.104 mmol/L
- Molar concentration of Bupivacaine [2, 27]: 0.198 mmol/L
- Molar concentration of Pamoic acid [2, 27]: 0.106 mmol/L
- Molar concentration of Bupivacaine [2, 28]: 0.198 mmol/L
- Molar concentration of Pamoic acid [2, 28]: 0.106 mmol/L
- Molar concentration of Bupivacaine [2, 29]: 0.202 mmol/L
- Molar concentration of Pamoic acid [2, 29]: 0.106 mmol/L
- Molar concentration of Bupivacaine [2, 30]: 0.200 mmol/L
- Molar concentration of Pamoic acid [2, 30]: 0.106 mmol/L
- Molar concentration of Bupivacaine [2, 31]: 0.196 mmol/L
- Molar concentration of Pamoic acid [2, 31]: 0.100 mmol/L
- Molar concentration of Bupivacaine [2, 32]: 0.038 mmol/L
- Molar concentration of Pamoic acid [2, 32]: 0.020 mmol/L
- Molar concentration of Bupivacaine [2, 33]: 0.080 mmol/L
- Molar concentration of Pamoic acid [2, 33]: 0.042 mmol/L
- Molar concentration of Bupivacaine [2, 34]: 0.192 mmol/L
- Molar concentration of Pamoic acid [2, 34]: 0.100 mmol/L
- Molar concentration of Bupivacaine [2, 35]: 0.240 mmol/L
- Molar concentration of Pamoic acid [2, 35]: 0.134 mmol/L
- Molar concentration of Bupivacaine [2, 36]: 0.246 mmol/L
- Molar concentration of Pamoic acid [2, 36]: 0.134 mmol/L
- Molar concentration of Bupivacaine [2, 37]: 0.242 mmol/L
- Molar concentration of Pamoic acid [2, 37]: 0.134 mmol/L
- Molar concentration of Bupivacaine [2, 38]: 0.234 mmol/L
- Molar concentration of Pamoic acid [2, 38]: 0.13 mmol/L
- Molar concentration of Bupivacaine [2, 39]: 0.232 mmol/L
- Molar concentration of Pamoic acid [2, 39]: 0.128 mmol/L
- Molar concentration of Bupivacaine [2, 40]: 0.226 mmol/L
- Molar concentration of Pamoic acid [2, 40]: 0.124 mmol/L
- Molar concentration of Bupivacaine [2, 41]: 0.226 mmol/L
- Molar concentration of Pamoic acid [2, 41]: 0.124 mmol/L
- Molar concentration of Bupivacaine [2, 42]: 0.230 mmol/L
- Molar concentration of Pamoic acid [2, 42]: 0.126 mmol/L
- Molar concentration of Bupivacaine [2, 43]: 0.224 mmol/L
- Molar concentration of Pamoic acid [2, 43]: 0.120 mmol/L
- Molar concentration of Bupivacaine [2, 44]: 0.036 mmol/L
- Molar concentration of Pamoic acid [2, 44]: 0.020 mmol/L
- Molar concentration of Bupivacaine [2, 45]: 0.092 mmol/L
- Molar concentration of Pamoic acid [2, 45]: 0.050 mmol/L
- Molar concentration of Bupivacaine [2, 46]: 0.252 mmol/L
- Molar concentration of Pamoic acid [2, 46]: 0.138 mmol/L
- Molar concentration of Bupivacaine [2, 47]: 0.328 mmol/L
- Molar concentration of Pamoic acid [2, 47]: 0.182 mmol/L
- Molar concentration of Bupivacaine [2, 48]: 0.336 mmol/L
- Molar concentration of Pamoic acid [2, 48]: 0.186 mmol/L
- Molar concentration of Bupivacaine [2, 49]: 0.338 mmol/L
- Molar concentration of Pamoic acid [2, 49]: 0.192 mmol/L
- Molar concentration of Bupivacaine [2, 50]: 0.338 mmol/L
- Molar concentration of Pamoic acid [2, 50]: 0.190 mmol/L
- Molar concentration of Bupivacaine [2, 51]: 0.334 mmol/L
- Molar concentration of Pamoic acid [2, 51]: 0.186 mmol/L
- Molar concentration of Bupivacaine [2, 52]: 0.326 mmol/L
- Molar concentration of Pamoic acid [2, 52]: 0.182 mmol/L
- Molar concentration of Bupivacaine [2, 53]: 0.328 mmol/L
- Molar concentration of Pamoic acid [2, 53]: 0.186 mmol/L
- Molar concentration of Bupivacaine [2, 54]: 0.336 mmol/L
- Molar concentration of Pamoic acid [2, 54]: 0.186 mmol/L
- Molar concentration of Bupivacaine [2, 55]: 0.336 mmol/L
- Molar concentration of Pamoic acid [2, 55]: 0.184 mmol/L

SMILES: CCCCN1CCCCC1C(=O)Nc1c(C)cccc1C (stereo not drawn) [bupivacaine hydrochloride]
- AUC(0-t) [3]: 0.711 µg·h/mL
- Cmax [3]: 0.33 µg/mL
- Tmax [3]: 37.8 min
- half-life [3]: 60 min

— US11084790B2, “Insoluble complex or solvate thereof, pharmaceutical composition and use thereof” (Fruithy Holdings Limited, priority 2017, dated 2021)
